Experimental data: ChEMBL document CHEMBL4406811, “Optimization and Mechanistic Characterization of Pyridopyrimidine Inhibitors of Bacterial Biotin Carboxylase” (J Med Chem, 2019)
In brackets after ≈: the same amount, converted by molar mass. Activity calls are given as the source filed them. No cut-off for these calls is given here.

Legend:
Biotin carboxylase = Biotin carboxylase (Pseudomonas aeruginosa (strain ATCC 15692 / DSM 22644 / CIP 104116 / JCM14847 / LMG 12228 / 1C / PRS 101 / PAO1), UniProt P37798); assay: Inhibition of recombinant N-terminal His-tagged Pseudomonas aeruginosa PAO1 biotin carboxylase expressed in Escherichia coli Rosetta(DE3) pLysS cells using biotin as substrate by spectroscopic analysis
Escherichia coli [1] = assay: Antibacterial activity against Escherichia coli DM4100 harboring deltatolC mutant measured after 18 to 20 hrs in presence of permeabilizing agent PMBN by broth microdilution method; format: functional
Escherichia coli [2] = assay: Antibacterial activity against Escherichia coli DM4100 harboring deltatolC mutant measured after 18 to 20 hrs by broth microdilution method; format: functional
Pseudomonas aeruginosa = assay: Antibacterial activity against Pseudomonas aeruginosa PAO1 PAM1262 harboring MexAB-OprM/MexCD-OprJ/MexEF-OprN deletion mutant measured after 18 to 20 hrs by broth microdilution method; format: functional
Escherichia coli [3] = assay: Induction of cytological changes in Escherichia coli ATCC 25922 assessed as formation of short chains of three to eight cells at 150 ug/ml measured after 2 hrs by FM 4-64/DAPI staining based microscopic analysis; format: functional, organism-based

Chain of Biotin carboxylase (P37798 whole entry): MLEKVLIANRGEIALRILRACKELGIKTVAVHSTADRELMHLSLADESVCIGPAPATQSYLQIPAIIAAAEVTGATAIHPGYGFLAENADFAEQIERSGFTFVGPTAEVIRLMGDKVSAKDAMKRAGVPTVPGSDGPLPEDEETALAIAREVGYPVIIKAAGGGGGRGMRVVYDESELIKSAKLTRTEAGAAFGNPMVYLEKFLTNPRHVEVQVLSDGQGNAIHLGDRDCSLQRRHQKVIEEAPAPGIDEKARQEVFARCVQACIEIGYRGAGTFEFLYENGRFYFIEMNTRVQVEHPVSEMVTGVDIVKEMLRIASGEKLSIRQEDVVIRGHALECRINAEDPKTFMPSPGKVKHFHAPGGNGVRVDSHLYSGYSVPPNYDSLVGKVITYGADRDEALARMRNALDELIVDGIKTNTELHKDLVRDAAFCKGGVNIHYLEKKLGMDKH

Nc1ncc2cc(-c3c(Cl)cccc3Cl)c(N3C[C@@H]4[C@@H](N)[C@@H]4C3)nc2n1
IC50 (Biotin carboxylase): 33 nM | MIC (Escherichia coli [1]): 0.06 µg/mL | MIC (Escherichia coli [2]): 0.12 µg/mL (≈ 0.31 µM)

COc1ncc(-c2cccc(Cl)c2-c2cc3cnc(N)nc3nc2N2C[C@@H]3[C@@H](N)[C@@H]3C2)cc1F
IC50 (Biotin carboxylase): ≤ 15 nM | MIC (Escherichia coli [1]): 0.008 µg/mL | MIC (Pseudomonas aeruginosa): 2 µg/mL (≈ 4.18 µM) | MIC (Escherichia coli [2]): 0.015 µg/mL (≈ 0.0314 µM)

Nc1ncc2cc(-c3c(Cl)cccc3Cl)c(N3CCC(N)(CO)C3)nc2n1 (centres undefined)
IC50 (Biotin carboxylase): 190 nM | MIC (Escherichia coli [1]): 0.25 µg/mL | MIC (Escherichia coli [2]): 1 µg/mL (≈ 2.47 µM)

Nc1ncc2cc(-c3ccccc3-c3cccnc3)c(N)nc2n1
IC50 (Biotin carboxylase): 130 nM | MIC (Escherichia coli [1]): 0.5 µg/mL | MIC (Pseudomonas aeruginosa): 16 µg/mL (≈ 50.9 µM) | MIC (Escherichia coli [2]): 2 µg/mL (≈ 6.36 µM)

NCC1CCN(c2nc3nc(N)ncc3cc2-c2c(Cl)cccc2Cl)C1 (centres undefined)
Activity (Escherichia coli [3]): Active | IC50 (Biotin carboxylase): 64 nM | MIC (Escherichia coli [1]): 0.12 µg/mL | MIC (Escherichia coli [2]): 0.5 µg/mL (≈ 1.28 µM)

Nc1ncc2cc(-c3c(Cl)cccc3-c3ccncc3)c(N3C[C@@H]4[C@@H](N)[C@@H]4C3)nc2n1
IC50 (Biotin carboxylase): ≤ 15 nM | MIC (Escherichia coli [1]): 0.015 µg/mL | MIC (Pseudomonas aeruginosa): 2 µg/mL (≈ 4.65 µM) | MIC (Escherichia coli [2]): 0.03 µg/mL (≈ 0.0698 µM)

Nc1ncc2cc(-c3c(Cl)cccc3Cl)c(N3CCC(CO)C3)nc2n1 (centres undefined)
IC50 (Biotin carboxylase): 140 nM | MIC (Escherichia coli [1]): 0.12 µg/mL | MIC (Escherichia coli [2]): 0.25 µg/mL (≈ 0.641 µM)

Nc1ncc2cc(-c3c(Cl)cccc3-c3cccnc3)c(N)nc2n1
IC50 (Biotin carboxylase): 36 nM | MIC (Escherichia coli [1]): 0.06 µg/mL | MIC (Pseudomonas aeruginosa): 4 µg/mL (≈ 11.5 µM) | MIC (Escherichia coli [2]): 0.12 µg/mL (≈ 0.344 µM)

NCC1(O)CCN(c2nc3nc(N)ncc3cc2-c2c(Cl)cccc2Cl)C1 (centres undefined)
IC50 (Biotin carboxylase): 83 nM | MIC (Escherichia coli [1]): 0.25 µg/mL | MIC (Pseudomonas aeruginosa): > 64 µg/mL | MIC (Escherichia coli [2]): 1 µg/mL (≈ 2.47 µM)

NCC1(F)CCN(c2nc3nc(N)ncc3cc2-c2c(Cl)cccc2Cl)C1 (centres undefined)
IC50 (Biotin carboxylase): 440 nM | MIC (Escherichia coli [1]): 1 µg/mL

NCC1CCN(c2nc3nc(N)ncc3cc2-c2c(Cl)cccc2Cl)CC1
IC50 (Biotin carboxylase): 320 nM | MIC (Escherichia coli [1]): 0.5 µg/mL | MIC (Pseudomonas aeruginosa): 64 µg/mL (≈ 159 µM) | MIC (Escherichia coli [2]): 1 µg/mL (≈ 2.48 µM)

Cc1ncc(-c2cccc(Cl)c2-c2cc3cnc(N)nc3nc2N2C[C@@H]3[C@@H](N)[C@@H]3C2)s1
IC50 (Biotin carboxylase): ≤ 15 nM | MIC (Escherichia coli [1]): 0.004 µg/mL | MIC (Pseudomonas aeruginosa): 1 µg/mL (≈ 2.22 µM) | MIC (Escherichia coli [2]): 0.008 µg/mL (≈ 0.0178 µM)

CC(C)COc1cccc(Cl)c1-c1cc2cnc(N)nc2nc1N
IC50 (Biotin carboxylase): 93 nM | MIC (Escherichia coli [1]): ≤ 0.06 µg/mL | MIC (Escherichia coli [2]): 0.25 µg/mL (≈ 0.727 µM)

Nc1ncc2cc(-c3ccccc3-c3ccccc3)c(N)nc2n1
IC50 (Biotin carboxylase): 79 nM | MIC (Escherichia coli [1]): 0.25 µg/mL | MIC (Escherichia coli [2]): 0.5 µg/mL (≈ 1.6 µM)

Nc1ncc2cc(-c3c(Cl)cccc3Cl)c(N)nc2n1
IC50 (Biotin carboxylase): 320 nM | MIC (Escherichia coli [1]): 0.25 µg/mL | MIC (Pseudomonas aeruginosa): 16 µg/mL (≈ 52.3 µM) | MIC (Escherichia coli [2]): 0.5 µg/mL (≈ 1.63 µM)

COc1ccc(-c2cccc(Cl)c2-c2cc3cnc(N)nc3nc2N)cn1
IC50 (Biotin carboxylase): 32 nM | MIC (Escherichia coli [1]): 0.03 µg/mL | MIC (Escherichia coli [2]): 0.06 µg/mL (≈ 0.158 µM)

NC(=O)C1CCN(c2nc3nc(N)ncc3cc2-c2c(Cl)cccc2Cl)C1 (centres undefined)
IC50 (Biotin carboxylase): 170 nM | MIC (Escherichia coli [1]): 0.12 µg/mL | MIC (Escherichia coli [2]): 0.5 µg/mL (≈ 1.24 µM)
